The values below come from PMC9834240, “Senescent cells perturb intestinal stem cell differentiation through Ptk7 induced noncanonical Wnt and YAP signaling” (Nature Communications, 2023).

The test system of assay [1] is mouse intestinal organoids. The experiment in a line: cystic organoid percentage, organoids in conditioned media (SCM/QCM) with or without inhibitors or antibodies. In kind it is cell-based. The conditions noted are these: SCM-exposed organoids. The protocol: Twenty-four hours before collecting conditioned media (CM), MEFs were washed with serum-free DMEM twice, and serum-free DMEM was added. After 24 h in serum-free DMEM, this CM was collected, filtered using Steriflip filters (Millipore, #SE1M179M6) to remove cell debris, and concentrated using centrifugal filter units (Amicon ultra-15 centricon; Millipore, # UFC900324). […] CM was filtered and dialyzed for 24–48 h to remove the inhibitors before concentration.
The jejunum part of the small intestine was removed, flushed with PBS, opened longitudinally, then cut into 0.5 cm pieces. The collected tissues were washed with ice cold PBS multiple times by vortexing and incubated in PBS containing 2.5 mM EDTA for 5 min at 37 °C. After gentle shaking and aspiration, tissues were incubated in PBS containing 5 mM EDTA for 7 min at 37 °C. Tissues were then washed with PBS to remove EDTA and vigorously shaken to release crypts. The released crypts were passed through 70 μm strainers, washed with PBS, and pelleted by centrifugation at 200 × g.
(§1) 3-4 biological replicates of organoids from different mice were used per condition. Organoids were cultured in the indicated media, inhibitors, antibodies and/or recombinant proteins for 5 d and fixed in 4% formaldehyde in PBS. Organoids were imaged with a 4× Plan Fluor objective (NA: 0.13, Nikon) on a Nikon Ti-E inverted microscope equipped with a Neo scMOS camera (Andor, Oxford Instruments), a linear encoded automated stage (Applied Scientific Instrumentation), all run by NIS Elements software (Nikon). Organoids were imaged in brightfield and images covering the whole well were stitched and focused into one image projection with an extended depth of focus module (EDF; Nikon). One hundred to 200 organoids per replicate per condition were counted and used for quantification. The number of budding organoids in each condition was normalized by the number of budding organoids in untreated or DMSO treated controls to calculate cystic organoid percentage:1 Cysticorganoidpercentage=100×1−Numberofbuddingorganoidsfromexperiment/Numberofbuddingorganoidsfromcontrol

Assay [2] has as its system mouse intestinal organoids. The experiment in a line: cystic organoid percentage, co-culture with quiescent or senescent intestinal fibroblasts. More on the design: key: % = 100×(1 − budding organoids treated/budding organoids control). The conditions noted are these: relative to DMSO = 0. In kind it is cell-based. The protocol: as §1
Mouse intestinal fibroblasts were purchased from Cell Biologics (#C57-6231) and cultured in Complete Fibroblast Medium (Cell Biologics, M2267) at 37 °C and 5% CO2. Cellular quiescence and senescence in mouse intestinal fibroblasts were induced by the similar methods described earlier for MEFs with minor modifications. Briefly, cellular quiescence was induced by culturing the fibroblasts in low serum (0.5% FBS), and cellular senescence was induced by 500 nM doxorubicin treatment for 5 days (doxorubicin; Sigma-Aldrich, #44583). Once cellular quiescence or senescence was induced, MEFs were maintained at 37 °C, 5% CO2, and 3% O2 for another 5 days. The quiescent or senescent fibroblasts were dissociated using 0.05% Trypsin-EDTA (Gibco, #25300-054) and counted for seeding. The same number of quiescent and senescent fibroblasts (5.2 × 10^4 cells) were mixed with intestinal organoids making total volume of 20 μl of Matrigel: organoid culture media mix, which was mounted on a 48 well plate.

`C=CC[C@@H]1/C=C(\C)C[C@H](C)C[C@H](OC)[C@H]2O[C@@](O)(C(=O)C(=O)N3CCCC[C@H]3C(=O)O[C@H](/C(C)=C/[C@@H]3CC[C@@H](O)[C@H](OC)C3)[C@H](C)[C@@H](O)CC1=O)[C@H](C)C[C@@H]2OC` [FK506]: in assay [1], the “effect on cystic organoid phenotype” value is reported as “had no effect on this phenotype”. For the same compound, the “cystic organoids (sheet SF.5d)” value was determined as 16.7523 in assay [2] (10 uM FK506, no fibroblasts, replicate 1); 26.0945 in assay [2] (10 uM FK506, no fibroblasts, replicate 2); 24.3439 in assay [2] (10 uM FK506, no fibroblasts, replicate 3); 27.9243 in assay [2] (Q + 10uM FK506 (quiescent fibroblasts), replicate 1); 44.452 in assay [2] (Q + 10uM FK506 (quiescent fibroblasts), replicate 2); 38.0019 in assay [2] (Q + 10uM FK506 (quiescent fibroblasts), replicate 3). The “cystic organoids (sheet SF.5d)” value is reported as 52.1362 in assay [2] (SEN + 10uM FK506 (senescent fibroblasts), replicate 1); 72.7766 in assay [2] (SEN + 10uM FK506 (senescent fibroblasts), replicate 2); 37.8556 in assay [2] (SEN + 10uM FK506 (senescent fibroblasts), replicate 3).
Regarding cyclosporin A, in assay [1], the “effect on cystic organoid phenotype” value is listed as “had no effect on this phenotype”. For the same compound, the “cystic organoids (sheet SF.5d)” value in assay [2] (1 uM CsA, no fibroblasts, replicate 1) is reported as -0.1051; in assay [2] (1 uM CsA, no fibroblasts, replicate 2), -6.5368; in assay [2] (1 uM CsA, no fibroblasts, replicate 3), 5.663; in assay [2] (Q + 1um CsA (quiescent fibroblasts), replicate 1) it was 19.8791; in assay [2] (Q + 1um CsA (quiescent fibroblasts), replicate 2), 16.6126; in assay [2] (Q + 1um CsA (quiescent fibroblasts), replicate 3), 9.858. The “cystic organoids (sheet SF.5d)” value in assay [2] (SEN + 1uM CsA (senescent fibroblasts), replicate 1) was found to be 45.7387; in assay [2] (SEN + 1uM CsA (senescent fibroblasts), replicate 2), 66.7022; in assay [2] (SEN + 1uM CsA (senescent fibroblasts), replicate 3), 42.5108.
